Measurements reported in PMC4020581 (Biochemistry, 2014).

Target: T1, FtsZ (Bacillus subtilis, UniProt P17865)
T1 sequence (P17865 1-382): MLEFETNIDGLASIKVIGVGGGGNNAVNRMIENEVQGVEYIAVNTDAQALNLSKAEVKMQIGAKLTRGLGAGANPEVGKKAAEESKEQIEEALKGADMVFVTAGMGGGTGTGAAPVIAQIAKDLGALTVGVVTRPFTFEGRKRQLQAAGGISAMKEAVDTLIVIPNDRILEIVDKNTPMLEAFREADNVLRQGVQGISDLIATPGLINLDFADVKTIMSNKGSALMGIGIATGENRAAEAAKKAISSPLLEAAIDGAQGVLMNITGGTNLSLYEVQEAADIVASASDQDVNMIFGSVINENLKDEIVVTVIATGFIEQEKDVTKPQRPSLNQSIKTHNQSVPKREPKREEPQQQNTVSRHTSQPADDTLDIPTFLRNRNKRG
Assay: malachite green/ammonium molybdate GTPase assay
Type: biochemical

Structure (SMILES): Nc1nc2c(ncn2[C@@H]2O[C@H](COP(=O)(O)OP(=O)(O)OP(=O)(O)O)[C@@H](O)[C@H]2O)c(=O)[nH]1 [GTP]
- malachite green/ammonium molybdate GTPase assay (1 mM GTP): 1.5 ± 0.6 min^–1
